Test results published in ChEMBL document CHEMBL1201862, “PubChem BioAssay data set” (2004).
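Each compound was tested at five concentrations against cells in 96-well plates for 48 hours. The concentration for 50% growth inhibition is given as GI50.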 Calls of active or inactive are those of the source. Rule as the data show it: active = GI50 up to about 1.1 µM and inactive = higher.

Tests used:
Assay in all cases: DTP human tumour cell line panel, 48 h
HOP-62 = system: HOP-62
RPMI-8226 = system: RPMI-8226
A549 = system: A549
SR = system: SR
COLO 205 = system: COLO 205
UACC-257 = system: UACC-257
T47D = system: T47D
HT-29 = system: HT-29
OVCAR-8 = system: OVCAR-8
OVCAR-5 = system: OVCAR-5
RXF 393 = system: RXF 393
SW-620 = system: SW-620
CCRF-CEM = system: CCRF-CEM
NCI-H522 = system: NCI-H522
SF-295 = system: SF-295
DU-145 = system: DU-145
HL-60 = system: HL-60
SN12C = system: SN12C
OVCAR-3 = system: OVCAR-3
K562 = system: K562

Measured: GI50

O=C(O)c1ccc(Nc2nc3cc(C(F)(F)F)ccc3nc2-c2ccccc2)cc1
inactive: HOP-62 17.2 µM | RPMI-8226 16.4 µM | A549 16.3 µM | SR 6.89 µM | COLO 205 17.5 µM | UACC-257 35.3 µM | T47D 7.26 µM | HT-29 14.1 µM | OVCAR-8 27.9 µM | OVCAR-5 45.6 µM | RXF 393 24 µM | SW-620 17.2 µM | CCRF-CEM 22.3 µM | NCI-H522 16.3 µM | SF-295 13.4 µM | DU-145 25.8 µM | HL-60 27.7 µM | SN12C 26 µM | OVCAR-3 15.2 µM | K562 16.8 µM

N#CCN1CCCN(CC#N)CCN(CC#N)CCCN(CC#N)CC1
inactive: HOP-62 > 100 µM | RPMI-8226 54.5 µM | A549 > 100 µM | SR > 100 µM | COLO 205 11.4 µM | UACC-257 > 100 µM | T47D > 100 µM | HT-29 > 10 µM | OVCAR-8 > 100 µM | OVCAR-5 > 100 µM | RXF 393 > 100 µM | SW-620 86.9 µM | CCRF-CEM 89.9 µM | NCI-H522 > 100 µM | SF-295 > 100 µM | DU-145 > 100 µM | HL-60 43.8 µM | SN12C > 100 µM | OVCAR-3 > 100 µM | K562 > 100 µM

NN/C(=N\S(=O)(=O)c1cc(S(=O)(=O)c2ccccc2)cs1)Nc1ccc(Cl)cc1
inactive: HOP-62 38.4 µM | RPMI-8226 22.7 µM | A549 27.2 µM | SR 9.71 µM | COLO 205 19.4 µM | UACC-257 19 µM | T47D 13.8 µM | HT-29 36.1 µM | OVCAR-8 32.4 µM | OVCAR-5 66.2 µM | RXF 393 14.9 µM | SW-620 47.5 µM | CCRF-CEM 13.5 µM | NCI-H522 13.2 µM | SF-295 17.6 µM | DU-145 26.1 µM | HL-60 4.58 µM | SN12C 28.4 µM | OVCAR-3 20.3 µM | K562 18.7 µM

COc1cc2c3c(c1O)C1(C=CC(=O)C=C1)CC3N(C)CC2 (stereo not given) [GLAZIOVINE]
inactive: HOP-62 13.1 µM | RPMI-8226 14.8 µM | A549 22.4 µM | SR 3.3 µM | COLO 205 5.4 µM | UACC-257 13.4 µM | T47D 11.7 µM | HT-29 8.95 µM | OVCAR-8 10.4 µM | OVCAR-5 19.3 µM | RXF 393 6.14 µM | SW-620 5.89 µM | CCRF-CEM 2.31 µM | NCI-H522 1.93 µM | SF-295 12 µM | DU-145 13.2 µM | HL-60 2.79 µM | SN12C 9.18 µM | OVCAR-3 5.37 µM | K562 5.2 µM
